Reference: PMC10510716

What was measured:
[1] = Paal-Knorr pyrrole formation between a side-chain 1,4-diketone (DOP1, unmasked from 5-methylfuran in TFA/m-cresol 9:1) and a side-chain hydrazide (Nu2) or aminooxy group (Nu5); crude redissolved in mQ water; details: the molecule shown is the open-chain precursor, pH ~2.5, 5.0 mM
[2] = Paal-Knorr-like closure of a side-chain 1,4-diketone (DOP, unmasked from 5-substituted furan in TFA/m-cresol 9:1) with a side-chain alkylhydrazine (Nu1), then air oxidation to a pyridazinium staple; crude redissolved in mQ water, pH adjusted to ~7.5; details: the molecule shown is the open-chain precursor, pH ~7.5, 5.0 mM

Compound `CC[C@H](C)[C@H](NC(=O)[C@H](CCC(=O)O)NC(=O)[C@H](CCCNC(=N)N)NC(=O)CNC(=O)[C@H](CCCCN)NC(=O)[C@H](CC(C)C)NC(=O)[C@H](Cc1c[nH]cn1)NC(=O)CNC(=O)[C@@H]1CCCN1C(C)=O)C(=O)NCC(=O)N[C@@H](CC(C)C)C(=O)N[C@@H](Cc1c[nH]c2ccccc12)C(=O)N[C@@H](Cc1ccc(O)cc1)C(=O)N[C@@H](C)C(=O)N[C@@H](CCCNC(=O)CCC(=O)NN)C(=O)N[C@@H](CCCCN)C(=O)N[C@@H](CCC(N)=O)C(=O)NCC(=O)N[C@@H](CCCNC(=O)CCC(=O)CCC(C)=O)C(=O)N[C@@H](CCCCN)C(=O)N[C@@H](CC(N)=O)C(=O)N[C@@H](CCCCN)C(N)=O` has a ring closure, overall yield ([1]; 31-membered ring) of 8.24%.

`CC(=O)CCC(=O)CCC(=O)NCCC[C@H](NC(C)=O)C(=O)N[C@@H](Cc1c[nH]c2ccccc12)C(=O)N[C@@H](CCCNC(=N)N)C(=O)NCC(=O)N[C@@H](CC(=O)O)C(=O)N[C@@H](Cc1ccc(O)cc1)C(=O)N[C@@H](CO)C(=O)N[C@@H](CCCNC(=O)CCC(=O)NN)C(N)=O` gave a ring closure, overall yield ([1]; 40-membered ring) of 4.3%.

In the case of `CC(=O)CCC(=O)CCC(=O)NCCC[C@H](NC(C)=O)C(=O)N[C@@H](Cc1c[nH]c2ccccc12)C(=O)N[C@@H](CCCNC(=N)N)C(=O)NCC(=O)N[C@@H](CC(=O)O)C(=O)N[C@@H](Cc1ccc(O)cc1)C(=O)N[C@@H](CO)C(=O)N[C@@H](CCCNC(=O)CNN)C(N)=O` [Ac-Orn(4,7-dioxooctanoyl)*-W-R-G-D-Y-S-Orn(COCH2NHNH2)*-NH2], the ring closure, overall yield ([2]; 38-membered ring) was 16.7%.

`CC[C@H](C)[C@H](NC(=O)[C@H](CCC(=O)O)NC(=O)[C@H](CCCNC(=N)N)NC(=O)CNC(=O)[C@H](CCCCN)NC(=O)[C@H](CC(C)C)NC(=O)[C@H](Cc1c[nH]cn1)NC(=O)CNC(=O)[C@@H]1CCCN1C(C)=O)C(=O)NCC(=O)N[C@@H](CC(C)C)C(=O)N[C@@H](Cc1c[nH]c2ccccc12)C(=O)N[C@@H](Cc1ccc(O)cc1)C(=O)N[C@@H](C)C(=O)N[C@@H](CCCNC(=O)CNN)C(=O)N[C@@H](CCCCN)C(=O)N[C@@H](CCC(N)=O)C(=O)NCC(=O)N[C@@H](CCCNC(=O)CCC(=O)CCC(C)=O)C(=O)N[C@@H](CCCCN)C(=O)N[C@@H](CC(N)=O)C(=O)N[C@@H](CCCCN)C(N)=O` showed a ring closure, overall yield ([2]; 29-membered ring) of 18.2%.

Work on `CC(=O)CCC(=O)CCC(=O)NCCC[C@H](NC(=O)[C@H](Cc1ccc(O)cc1)NC(C)=O)C(=O)N[C@@H](CCCNC(=N)N)C(=O)NCC(=O)N[C@@H](CC(=O)O)C(=O)N[C@@H](CCCNC(=O)CCC(=O)NN)C(=O)N[C@@H](CO)C(=O)N[C@@H](Cc1c[nH]c2ccccc12)C(N)=O` yielded a ring closure, overall yield ([1]; 31-membered ring) of 2.3%.

`CC(=O)CCC(=O)CCC(=O)NCCC[C@H](NC(=O)[C@H](Cc1ccc(O)cc1)NC(C)=O)C(=O)N[C@@H](CCCNC(=N)N)C(=O)NCC(=O)N[C@@H](CC(=O)O)C(=O)N[C@@H](CCCNC(=O)CON)C(=O)N[C@@H](CO)C(=O)N[C@@H](Cc1c[nH]c2ccccc12)C(N)=O` [Ac-Y-Orn(4,7-dioxooctanoyl)*-R-G-D-Orn(COCH2ONH2)*-S-W-NH2] gave a ring closure, overall yield ([1]; 29-membered ring) of 8.1%.

Compound `COc1ccc(C(=O)CCC(=O)CCC(=O)NCCC[C@H](NC(C)=O)C(=O)N[C@@H](Cc2c[nH]c3ccccc23)C(=O)N[C@@H](CCCNC(=N)N)C(=O)NCC(=O)N[C@@H](CC(=O)O)C(=O)N[C@@H](Cc2ccc(O)cc2)C(=O)N[C@@H](CO)C(=O)N[C@@H](CCCNC(=O)CNN)C(N)=O)cc1` has a ring closure, overall yield ([2]; 38-membered ring) of 13.9%.

Work on `CC[C@H](C)[C@H](NC(=O)[C@H](CCCNC(=O)CCC(=O)CCC(C)=O)NC(=O)[C@H](CCCNC(=N)N)NC(=O)CNC(=O)[C@H](CCCCN)NC(=O)[C@H](CC(C)C)NC(=O)[C@H](Cc1c[nH]cn1)NC(=O)CNC(=O)[C@@H]1CCCN1C(C)=O)C(=O)NCC(=O)N[C@@H](CC(C)C)C(=O)N[C@@H](Cc1c[nH]c2ccccc12)C(=O)N[C@@H](Cc1ccc(O)cc1)C(=O)N[C@@H](C)C(=O)N[C@@H](CCCNC(=O)CNN)C(=O)N[C@@H](CCCCN)C(=O)N[C@@H](CCC(N)=O)C(=O)NCC(=O)N[C@@H](CCC(N)=O)C(=O)N[C@@H](CCCCN)C(=O)N[C@@H](CC(N)=O)C(=O)N[C@@H](CCCCN)C(N)=O` yielded a ring closure, overall yield ([2]; 38-membered ring) of 16.8%.

Work on `CC[C@H](C)[C@H](NC(=O)[C@H](CCCNC(=O)CNN)NC(=O)c1ccc(NC(C)=O)cc1)C(=O)N[C@@H](C)C(=O)N[C@@H](C)C(=O)N[C@@H](CC(C)C)C(=O)N[C@@H](CCCCN)C(=O)N[C@@H](CCC(=O)O)C(=O)N[C@@H](CCCCN)C(=O)N[C@H](C(=O)N[C@@H](CCCNC(=O)CNN)C(=O)N[C@@H](C)C(=O)N[C@@H](CC(C)C)C(=O)N[C@@H](CCCCN)C(=O)N[C@@H](CCC(=O)O)C(=O)N[C@@H](CCCCN)C(=O)N[C@H](C(=O)N[C@@H](CCCNC(=O)CCC(=O)CCC(C)=O)C(=O)N[C@@H](C)C(=O)N[C@@H](CC(C)C)C(=O)N[C@@H](CCCCN)C(=O)N[C@@H](CCC(=O)O)C(N)=O)[C@@H](C)CC)[C@@H](C)CC` yielded a ring closure, overall yield ([2]; 38-membered ring) of 6.9%.

For `CC[C@H](C)[C@H](NC(=O)[C@H](CCC(=O)O)NC(=O)[C@H](CCCNC(=N)N)NC(=O)CNC(=O)[C@H](CCCCN)NC(=O)[C@H](CC(C)C)NC(=O)[C@H](Cc1c[nH]cn1)NC(=O)CNC(=O)[C@@H]1CCCN1C(C)=O)C(=O)NCC(=O)N[C@@H](CC(C)C)C(=O)N[C@@H](Cc1c[nH]c2ccccc12)C(=O)N[C@@H](Cc1ccc(O)cc1)C(=O)N[C@@H](C)C(=O)N[C@@H](CCCNC(=O)CNN)C(=O)N[C@@H](CCCCN)C(=O)N[C@@H](CCC(N)=O)C(=O)NCC(=O)N[C@@H](CCCNC(=O)CCC(=O)CCC(=O)c1ccc(OC)cc1)C(=O)N[C@@H](CCCCN)C(=O)N[C@@H](CC(N)=O)C(=O)N[C@@H](CCCCN)C(N)=O`, the ring closure, overall yield ([2]; 29-membered ring) was 10.9%.

Compound `CC[C@H](C)[C@H](NC(=O)[C@H](CCCNC(=O)CCC(=O)CCC(C)=O)NC(=O)[C@H](CCCNC(=N)N)NC(=O)CNC(=O)[C@H](CCCCN)NC(=O)[C@H](CC(C)C)NC(=O)[C@H](Cc1c[nH]cn1)NC(=O)CNC(=O)[C@@H]1CCCN1C(C)=O)C(=O)NCC(=O)N[C@@H](CC(C)C)C(=O)N[C@@H](Cc1c[nH]c2ccccc12)C(=O)N[C@@H](Cc1ccc(O)cc1)C(=O)N[C@@H](C)C(=O)N[C@@H](CCCNC(=O)CON)C(=O)N[C@@H](CCCCN)C(=O)N[C@@H](CCC(N)=O)C(=O)NCC(=O)N[C@@H](CCC(N)=O)C(=O)N[C@@H](CCCCN)C(=O)N[C@@H](CC(N)=O)C(=O)N[C@@H](CCCCN)C(N)=O` has a ring closure, overall yield ([1]; 38-membered ring) of 13.9%.

`CC[C@H](C)[C@H](NC(=O)[C@H](CCCNC(=O)CNN)NC(=O)c1ccc(NC(C)=O)cc1)C(=O)N[C@@H](C)C(=O)N[C@@H](C)C(=O)N[C@@H](CC(C)C)C(=O)N[C@@H](CCCCN)C(=O)N[C@@H](CCC(=O)O)C(=O)N[C@@H](CCCCN)C(=O)N[C@H](C(=O)N[C@@H](CCCNC(=O)CNN)C(=O)N[C@@H](C)C(=O)N[C@@H](CC(C)C)C(=O)N[C@@H](CCCCN)C(=O)N[C@@H](CCCNC(=O)CCC(=O)CCC(C)=O)C(=O)N[C@@H](CCCCN)C(=O)N[C@H](C(=O)N[C@@H](C)C(=O)N[C@@H](C)C(=O)N[C@@H](CC(C)C)C(=O)N[C@@H](CCCCN)C(=O)N[C@@H](CCC(=O)O)C(N)=O)[C@@H](C)CC)[C@@H](C)CC` showed a ring closure, overall yield ([2]; 29-membered ring) of 6.2%.

`CC(=O)CCC(=O)CCC(=O)NCCC[C@H](NC(C)=O)C(=O)N[C@@H](Cc1c[nH]c2ccccc12)C(=O)N[C@@H](CCCNC(=N)N)C(=O)NCC(=O)N[C@@H](CC(=O)O)C(=O)N[C@@H](Cc1ccc(O)cc1)C(=O)N[C@@H](CO)C(=O)N[C@@H](CCCNC(=O)CON)C(N)=O` [Ac-Orn(4,7-dioxooctanoyl)*-W-R-G-D-Y-S-Orn(COCH2ONH2)*-NH2] gave a ring closure, overall yield ([1]; 38-membered ring) of 5.2%.

Compound `COc1ccc(C(=O)CCC(=O)CCC(=O)NCCC[C@H](NC(=O)[C@H](Cc2ccc(O)cc2)NC(C)=O)C(=O)N[C@@H](CCCNC(=N)N)C(=O)NCC(=O)N[C@@H](CC(=O)O)C(=O)N[C@@H](CCCNC(=O)CNN)C(=O)N[C@@H](CO)C(=O)N[C@@H](Cc2c[nH]c3ccccc23)C(N)=O)cc1` has a ring closure, overall yield ([2]; 29-membered ring) of 13.5%.

With `CC(=O)CCC(=O)CCC(=O)NCCC[C@H](NC(=O)[C@H](Cc1ccc(O)cc1)NC(C)=O)C(=O)N[C@@H](CCCNC(=N)N)C(=O)NCC(=O)N[C@@H](CC(=O)O)C(=O)N[C@@H](CCCNC(=O)CNN)C(=O)N[C@@H](CO)C(=O)N[C@@H](Cc1c[nH]c2ccccc12)C(N)=O` [Ac-Y-Orn(4,7-dioxooctanoyl)*-R-G-D-Orn(COCH2NHNH2)*-S-W-NH2] the ring closure, overall yield ([2]; 29-membered ring) was 16.8%.

`CC[C@H](C)[C@H](NC(=O)[C@H](CCCNC(=O)CCC(=O)CCC(C)=O)NC(=O)[C@H](CCCNC(=N)N)NC(=O)CNC(=O)[C@H](CCCCN)NC(=O)[C@H](CC(C)C)NC(=O)[C@H](Cc1c[nH]cn1)NC(=O)CNC(=O)[C@@H]1CCCN1C(C)=O)C(=O)NCC(=O)N[C@@H](CC(C)C)C(=O)N[C@@H](Cc1c[nH]c2ccccc12)C(=O)N[C@@H](Cc1ccc(O)cc1)C(=O)N[C@@H](C)C(=O)N[C@@H](CCCNC(=O)CCC(=O)NN)C(=O)N[C@@H](CCCCN)C(=O)N[C@@H](CCC(N)=O)C(=O)NCC(=O)N[C@@H](CCC(N)=O)C(=O)N[C@@H](CCCCN)C(=O)N[C@@H](CC(N)=O)C(=O)N[C@@H](CCCCN)C(N)=O` showed a ring closure, overall yield ([1]; 40-membered ring) of 12.6%.

Compound `CC[C@H](C)[C@H](NC(=O)[C@H](CCCNC(=O)CCC(=O)CCC(=O)c1ccc(OC)cc1)NC(=O)[C@H](CCCNC(=N)N)NC(=O)CNC(=O)[C@H](CCCCN)NC(=O)[C@H](CC(C)C)NC(=O)[C@H](Cc1c[nH]cn1)NC(=O)CNC(=O)[C@@H]1CCCN1C(C)=O)C(=O)NCC(=O)N[C@@H](CC(C)C)C(=O)N[C@@H](Cc1c[nH]c2ccccc12)C(=O)N[C@@H](Cc1ccc(O)cc1)C(=O)N[C@@H](C)C(=O)N[C@@H](CCCNC(=O)CNN)C(=O)N[C@@H](CCCCN)C(=O)N[C@@H](CCC(N)=O)C(=O)NCC(=O)N[C@@H](CCC(N)=O)C(=O)N[C@@H](CCCCN)C(=O)N[C@@H](CC(N)=O)C(=O)N[C@@H](CCCCN)C(N)=O` has a ring closure, overall yield ([2]; 38-membered ring) of 17.1%.
